Results as given in US20100285959A1, “HERBICIDAL MIXTURES” (priority 2006, published 2010).

What was measured:
Experiment in all cases: Test 4 field trial, postemergence
Details in all cases: clodinafop 56 or fenoxaprop 90 g a.i./ha alone
[1] = tested on: Russian thistle (SASKR); type: in vivo, Salsola kali; design: scale not given here
Experimental: (§1) A field trial was conducted to evaluate the effects of mixtures of Compound 2 with commercial herbicides on spring wheat (TRZAS, Triticum aestivum L.) and several weed species. Wheat seeds (cv. ‘AC Intrepid’) were planted in late spring season, 3.8 cm deep in a loam soil having 2.7% organic matter and a pH of 7. Plots were 6 m long by 2.5 m wide. The field was managed using no-till practices. The plots were arranged in a randomized complete block design with each treatment being replicated four times. Treatments were applied postemergence 25 days after planting using a backpack sprayer delivering a spray volume of 55 L/ha using a pressure of 276 kPa. […] Compound 2 and clodinafop treatments, alone and in combination, also included a surfactant. Weed species present in the experimental plots in sufficient quantity to be evaluated included wild oat (AVEFA, Avena fatua L.), common lambsquarters (CHEAL, Chenopodium album L.), kochia (KCHSC, Kochia scoparia (L.) Schrad.), wild buckwheat (POLCO, Polygonum convolvulus L.), Russian thistle (SASKR, Salsola kali L. ssp. ruthenica (Iljin) Soo), and field pennycress (THLAR, Thlaspi arvense L.). […] Common lambsquarters was evaluated only at 14 days after application. […] Results are the means of the four replicates.

[2] = tested on: wild buckwheat (POLCO); type: in vivo, Polygonum convolvulus
Experimental: as §1

[3] = tested on: spring wheat (TRZAS)
Experimental: as §1

[4] = tested on: field pennycress (THLAR); type: in vivo, Thlaspi arvense; design: scale not given here
Experimental: as §1

[5] = tested on: wild oat (AVEFA); type: in vivo, Avena fatua; design: scale not given here
Experimental: as §1

[6] = tested on: common lambsquarters (CHEAL); type: in vivo, Chenopodium album

## CC(Oc1ccc(Oc2nc3ccc(Cl)cc3o2)cc1)C(=O)O (centres unmarked) [Fenoxaprop]
[1]; 14 DAA
  SASKR Obs: 0
[1]; 35 DAA
  SASKR Obs: 0
[2]; 14 DAA
  POLCO Obs: 0
[2]; 35 DAA
  POLCO Obs: 0
[3]; 14 DAA
  TRZAS Obs: 0
[3]; 35 DAA
  TRZAS Obs: 0
[3]; 55 DAA
  TRZAS Obs: 0
[4]; 14 DAA
  THLAR Obs: 0
[4]; 35 DAA
  THLAR Obs: 0
[5]; 14 DAA
  AVEFA Obs: 96
[5]; 35 DAA
  AVEFA Obs: 96
[5]; 55 DAA
  AVEFA Obs: 98
[6]; 14 DAA
  CHEAL Obs: 0
[6]; 35 DAA
  CHEAL Obs: 0
